Assay results as given in patent US20230172933A1, “USE OF A COMPOUND OR COMPOSITION COMPRISING AN INHIBITOR OF NLRP1 INFLAMMASOME ACTIVATION FOR THE TREATMENT OF HUMAN AIRWAY INFLAMMATION” (Nanyang Technological University, priority 2020, published 2023).
“Also recorded” adds a separate entry of the source.

What was measured:
[1] = tested on: NLRP1 inflammasome in HRV16-infected NHBEs; test: HRV16-induced IL-1β and IL-18 secretion in NHBEs (ELISA); format: cell-based, human; details: HRV16 MOI=5, 33° C., 48 hours, pre-treated: MLN4924 1 μM, Bortezomib 1 μM, MCC950 5 μM, Rupintrivir 10 nM
Experimental: (§1) (A) Expression levels of NLRP1 vs. NLRP3 (RNAseq FKPM) in NHBEs. n=21, independent cultures of pooled NHBEs from healthy donors. (B) Expression of NLRP1 vs. NLRP3 in healthy human nasal biopsy. Puncta: positive staining by RNAscope. Nuclei staining: hematoxylin. (C) Overview of cytokine profiling of by HRV16-infected and Talabostat-treated NHBEs. (D) Cells were inoculated with HRV16 at MOI=5 and cultured at 33° C. for 48 hours. Luminex array was performed on conditioned media after removing cell debris. n=3 independent infections and treatment. Cytokines/chemokines that were induced at least 5 fold (p<0.05, Student's t test, lognormal values) are represented by square boxes. […] NHBEs were pretreated with MCC950 (5 μM) or Rupintrivir (10 nM) before HRV16 inoculation or Talabostat (2 μM) treatment. […] (G) Overview of apical HRV infection 3D human bronchial epithelial cultures. (H) Alcian blue (AB)/periodic acid-Schiff (PAS) staining of HRV16-infected (MOI=3) and Talabostat (2 μM)-treated 3D human bronchial epithelial cultures. (1) IL-18 level in apical or basal media 48 hours post-infection or Talabostat treatment. **P<0.01, ***P<0.001, ****P<0.0001 (Two-way ANOVA). n=3 independent infected/treated cultures. (J) Secretion of cleaved IL-1β and IL-18 and ASC oligomerization in HRV16-infected primary NHBEs. Cells were inoculated with HRV16 (MOI=5) or treated with Talabostat (2 μM) for 48 hours at 33° C.
(§2) (A) Endogenous NLRP1, ASC and caspase-1 are indispensable for HRV16-induced IL-18 secretion in NHBEs. Cas9-control, NLRP1, ASC and CASP1 KO NHBEs were infected with HRV16 as before. Conditioned media were harvested 48 hours post-infection. (B) NLRP1 is genetically required for HRV16-induced IL-18 cleavage and ASC oligomerization. Cas9 control, NLRP1 and ASC KO NHBEs were infected with HRV16 as before. Cleaved IL-18 are marked with arrows. (C) Mutating the NLRP1 cleavage site abrogates HRV16-triggered IL-18 secretion in NHBEs. NLRP1 KO NHBEs were rescued with lentiviral constructs expressing FLAG-tagged NLRP1^WT or NLRP1^Q130A, which carried silent mutations at the PAM sites. The rescued cells were infected with HRV16 or treated with Talabostat. Conditioned media was analyzed by IL-18 ELISA. **P<0.01, ***P<0.001, n=3 replicates from one of two independent infections. (D) Q130A abrogates NLRP1 cleavage, IL-18 maturation and ASC oligomerization in NHBEs. NLRP1 KO or NLRP1^WT- or NLRP1^Q130A-rescued cells were infected with HRV16 or treated with Talabostat. Cells were harvested 48 hours post infection. Arrow: NLRP1 cleavage product in lane 8 HRV16. *: Non-specific NLRP1 degradation product that occurs right below the a.a. 131-1213 cleavage fragment. See also FIG. 3E, 5E, 5D. (E) MLN4924 and Bortezomib blocks HRV16-induced IL-18 secretion. NHBEs were pre-treated with MLN4924 (1 μM) or Bortezomib (1 μM) before HRV16 infection or Talabostat treatment. IL-18 levels were measured with ELISA. ****, p<0.0001 (Two-way ANOVA), n=3 independent infections/treatment. (F) MLN4924 and Bortezomib blocks HRV16-induced IL-1β secretion. […] Lysates from HRV16-infected NHBEs in FIGS. 9E-F were analyzed by Western blot 48 hours post HRV16 inoculation.
(§3) The following antibodies were used in this study: c-Myc (Santa Cruz Biotechnology #sc-40), HA tag (Santa Cruz Biotechnology, #sc-805), GAPDH (Santa Cruz Biotechnology, #sc-47724), ASC (Adipogen, #AL-177), CASP1 (Santa Cruz Biotechnology, #sc-622), IL1B (R&D systems, #AF-201), FLAG (SigmaAldrich, #F3165), GFP (Abcam, #ab290), NLRP1 (R&D systems, #AF6788), IL18 (Abcam ab207324) and VP2 (QED Bioscience, #18758). HRV16-3Cpro was detected by rabbit serum, a kind gift from Dr. Ann Palmenberg and Dr. James Gern (University of Wisconsin). Cytokine and chemokine measurements were carried out with human IL-1B ELISA kit (BD, #557953), human IL-18 ELISA kit (MBL Bioscience, #7620) and Immune Monitoring 65-Plex Human ProcartaPlex™ Panel (ThermoFisher EPX650-10065-901). […]

NLRP1 = NLRP1 self-oligomerization (BN-PAGE) and cleavage fragment (SDS-PAGE/Western blot) in 293T-NLRP1-FLAG cells transfected with HRV14-3Cpro; format: cell-based, human
[2] = tested on: NLRP1 inflammasome in Talabostat-treated NHBEs; test: Talabostat-induced IL-1β and IL-18 secretion in NHBEs (ELISA); format: cell-based, human; details: Talabostat 2 μM, pre-treated: MLN4924 1 μM, MCC950 5 μM, Rupintrivir 10 nM
Experimental: as §1
(A) Endogenous NLRP1, ASC and caspase-1 are indispensable for HRV16-induced IL-18 secretion in NHBEs. Cas9-control, NLRP1, ASC and CASP1 KO NHBEs were infected with HRV16 as before. Conditioned media were harvested 48 hours post-infection. (B) NLRP1 is genetically required for HRV16-induced IL-18 cleavage and ASC oligomerization. Cas9 control, NLRP1 and ASC KO NHBEs were infected with HRV16 as before. Cleaved IL-18 are marked with arrows. […] Conditioned media was analyzed by IL-18 ELISA. **P<0.01, ***P<0.001, n=3 replicates from one of two independent infections. […] IL-18 levels were measured with ELISA. ****, p<0.0001 (Two-way ANOVA), n=3 independent infections/treatment. […] Lysates from HRV16-infected NHBEs in FIGS. 9E-F were analyzed by Western blot 48 hours post HRV16 inoculation.
as §3, with “Wisconsin).” for “Wisconsin). Cytokine and chemokine measurements were carried out with human IL-1B ELISA kit (BD, #557953), human IL-18 ELISA kit (MBL Bioscience, #7620) and Immune Monitoring 65-Plex Human ProcartaPlex™ Panel (ThermoFisher EPX650-10065-901).”

[3] = tested on: endogenous NLRP1 inflammasome; test: Endogenous NLRP1 inflammasome in doxycycline-induced Tet-ON HRV14-3Cpro N/TERT keratinocytes; format: cell-based, human
NLRP1 inflammasome = test: Talabostat-induced IL-1β secretion in N/TERT keratinocytes; format: cell-based, human; details: ELISA of conditioned media
HRV16 = test: VP2 maturation in HRV16-infected NHBEs (Western blot); format: cell-based, HRV-A16; details: 48 hours post inoculation, MLN4924 1 μM
Experimental: as §2, with “Arrow: NLRP1 cleavage product in lane 8 HRV16. *: Non-specific NLRP1 degradation product that occurs right below the a.a. 131-1213 cleavage fragment. See also FIG. 3E, 5E, 5D. (E) MLN4924 and Bortezomib blocks HRV16-induced IL-18 secretion. NHBEs were pre-treated with MLN4924 (1 μM) or Bortezomib (1 μM) before HRV16 infection or Talabostat treatment.” left out, “infections/treatment.” for “infections/treatment. (F) MLN4924 and Bortezomib blocks HRV16-induced IL-1β secretion.”, “inoculation. […]” for “inoculation.”

human NLRP1 inflammasome = test: HRV14-3Cpro-induced ASC-GFP speck formation in 293T-ASC-GFP-NLRP1-FLAG reporter cells; format: cell-based; details: 293T-ASC-GFP-NLRP1-FLAG cells transfected with HRV14-3Cpro; MLN4924 1 μM, MG132 2.5 μM, Bortezomib 0.5 μM, phenylalanine 1 mM; 24 hours
human NLRP1 = test: ASC-GFP speck formation in 293T-ASC-GFP-NLRP1-FLAG cells after Talabostat treatment; format: cell-based; details: Talabostat 2 μM, 24 hrs, compared to vector-transfected cells
NHBEs = test: Cytokine response of Talabostat-treated NHBEs (Luminex array, ELISA); format: cell-based, human
Experimental: (A) Expression levels of NLRP1 vs. NLRP3 (RNAseq FKPM) in NHBEs. n=21, independent cultures of pooled NHBEs from healthy donors. (B) Expression of NLRP1 vs. NLRP3 in healthy human nasal biopsy. Puncta: positive staining by RNAscope. Nuclei staining: hematoxylin. (C) Overview of cytokine profiling of by HRV16-infected and Talabostat-treated NHBEs. (D) Cells were inoculated with HRV16 at MOI=5 and cultured at 33° C. for 48 hours. Luminex array was performed on conditioned media after removing cell debris. n=3 independent infections and treatment. Cytokines/chemokines that were induced at least 5 fold (p<0.05, Student's t test, lognormal values) are represented by square boxes. […] NHBEs were pretreated with MCC950 (5 μM) or Rupintrivir (10 nM) before HRV16 inoculation or Talabostat (2 μM) treatment. […]
as §3, with “Wisconsin).” for “Wisconsin). Cytokine and chemokine measurements were carried out with human IL-1B ELISA kit (BD, #557953), human IL-18 ELISA kit (MBL Bioscience, #7620) and Immune Monitoring 65-Plex Human ProcartaPlex™ Panel (ThermoFisher EPX650-10065-901).”

N/TERT cells = test: Mode of cell death of N/TERT cells by Annexin V and PI inclusion; format: cell-based, human; details: Talabostat-treated N/TERT cells; marked by PI inclusion
Experimental: (A) Expression of Myc-tagged viral proteases in 293T-ASC-GFP-NLRP1-FLAG cells. Two exposure times were shown. Note that Myc-HRV16-3Cpro was lowly expressed but could activate ASC-GFP specks. (B) Representative wide-field fluorescent images of ASC-GFP specks, NLRP1-HA and Myc-tagged proteases. 293T-ASC-GFP cells were co-transfected with NLRP1-HA and Myc-tagged gZiPro, HRV14-3Cpro or HRV14-3Cpro^C146A and fixed 24 hours post transfection. (C) Validation of ASC KO in N/TERT cells. ASC KO #2 was chosen for further experiments. (E) N/TERT KO cells were transfected with the indicated 3Cpro variants and harvested 24 hours post transfection. Conditioned media was analyzed by IL-1β ELISA. **P<0.01 (Two-way ANOVA). n=3 independent transfections. (F) Modes of cell death of Talabostat-treated, or doxycycline-induced Tet-ON HRV14-3Cpro N/TERT cells assayed […] and PI inclusion. Data are representative of one of two independent experiments.
This provides a robust cellular system to determine if 3Cpros can activate the endogenous NLRP1 inflammasome. […] Live-cell imaging of human keratinocytes expressing GFP-tagged ASC further corroborated that HRV14-3Cpro could induce ASC-GFP speck formation (FIG. 1F). […]

[4] = tested on: 3D human bronchial epithelial cultures; test: Talabostat treatment of 3D human bronchial epithelial cultures; format: cell-based; details: Talabostat 2 μM
Experimental: as §1, with “Cells were inoculated with HRV16 (MOI=5) or treated with Talabostat (2 μM) for 48 hours at 33° C.” left out

| SMILES | HRV16-induced IL-1β secretion [1] | HRV16-induced IL-18 secretion [1] | stabilization of the post-cleavage NLRP1 fragment (a.a. 131-1213) (NLRP1; 293T-NLRP1-FLAG cells transfected with HRV14-3Cpro, Western blot) | HRV14-3Cpro-induced NLRP1 self-oligomerization (NLRP1; 293T-NLRP1-FLAG cells, BN-PAGE, drugs for 24 hours, MG132 2.5 μM) | Talabostat-induced IL-1β secretion [2] | Talabostat-induced IL-18 secretion [2] | ASC oligomerization upon HRV14-3Cpro induction ([3]; doxycycline 24 hours) | mature IL-1β secretion upon HRV14-3Cpro induction ([3]; doxycycline 24 hours, Western blot, ELISA) | endogenous 3Cpro-induced NLRP1 inflammasome and pyroptosis ([3]; doxycycline with drug for 24 hours) | stabilization of the post-cleavage NLRP1 fragment ([3]; fragment below detection limit in untreated cells) | Talabostat-induced IL-1β secretion (NLRP1 inflammasome) | accumulation of mature capsid protein VP2 (3Cpro-dependent VP2 maturation) (HRV16) | HRV14-3Cpro-induced ASC-GFP speck formation (human NLRP1 inflammasome) | percentage of cells forming ASC-GFP specks (human NLRP1) | IL-1β secretion (NHBEs; ELISA) | IL-18 induction (cytokine profiling) (NHBEs; Luminex array on conditioned media) | mode of cell death (N/TERT cells) | epithelium morphology (Alcian blue/PAS staining) [4] | IL-18 level in apical or basal media ([4]; 48 hours) |
| --- | --- | --- | --- | --- | --- | --- | --- | --- | --- | --- | --- | --- | --- | --- | --- | --- | --- | --- | --- |
| NS(=O)(=O)OC[C@@H]1C[C@@H](n2ccc3c(N[C@H]4CCc5ccccc54)ncnc32)C[C@@H]1O [MLN4924, ((1S,2S,4R)-4-(4-(((S)-2,3-dihydro-1H-inden-1-yl)amino)-7H-pyrrolo[2,3-d]pyrimidin-7-yl)-2-hydroxycyclopentyl)methyl sulfamate] | completely blocked; also recorded: blocks | completely blocked; also recorded: blocks | led to the stabilization | similarly blocked; also recorded: inhibits | only had a modest effect | did not affect | completely blocked | completely blocked | inhibits | stabilized | much less dramatic effect | did not affect; also recorded: does not affect | blocked; also recorded: abrogate |  |  |  |  |  |  |
| CC(C)[C@H](N)C(=O)N1CCC[C@H]1B(O)O [Talabostat] |  |  |  |  |  |  |  |  |  |  |  |  |  | significant increase | significantly secreted | most highly induced cytokine | exclusively caused lytic cell death | significant disruption of the epithelium, increased mucin production and goblet cell engorgement | led to IL-18 secretion in both the apical and basal media |
